Laboratory results: patent publication US20260356819A1, “OXOISOINDOLINYL-SUBSTITUTED […] DERIVATIVE AND USE THEREOF” (GLUETACS THERAPEUTICS (SHANGHAI) CO., LTD., priority 2023, published 2026)

Legend:
Format in all cases: cell-based
Settings in all cases: compounds at 50 nM and 500 nM
WEE1 = biological target: T1, WEE1 (Homo sapiens, UniProt P30291+Q96SW2); assay: Western blot degradation of WEE1 in hPBMCs (24 h)
T1 construct: The supernatant was aspirated as the extracted total cell protein; endogenous in cells; host or cells: human peripheral blood mononuclear cells (hPBMCs)
T1 sequence (P30291 whole entry): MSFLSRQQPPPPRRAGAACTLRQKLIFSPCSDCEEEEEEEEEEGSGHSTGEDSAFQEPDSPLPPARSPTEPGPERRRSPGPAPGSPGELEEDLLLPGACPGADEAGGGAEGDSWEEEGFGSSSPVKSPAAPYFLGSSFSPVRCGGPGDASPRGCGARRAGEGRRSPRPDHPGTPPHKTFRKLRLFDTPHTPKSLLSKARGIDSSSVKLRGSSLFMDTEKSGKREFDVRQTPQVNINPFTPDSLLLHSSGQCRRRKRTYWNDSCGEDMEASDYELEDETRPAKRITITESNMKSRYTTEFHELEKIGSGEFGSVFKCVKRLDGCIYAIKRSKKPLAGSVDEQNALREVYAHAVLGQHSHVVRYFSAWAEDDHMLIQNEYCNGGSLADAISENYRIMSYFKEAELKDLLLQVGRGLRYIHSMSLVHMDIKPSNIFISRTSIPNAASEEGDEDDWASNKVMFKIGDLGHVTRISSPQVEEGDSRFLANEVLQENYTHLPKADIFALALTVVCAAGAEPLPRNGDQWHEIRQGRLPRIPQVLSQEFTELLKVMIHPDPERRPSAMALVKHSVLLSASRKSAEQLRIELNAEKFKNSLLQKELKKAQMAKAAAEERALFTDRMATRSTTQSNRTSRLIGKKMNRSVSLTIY
T1 sequence (Q96SW2 whole entry): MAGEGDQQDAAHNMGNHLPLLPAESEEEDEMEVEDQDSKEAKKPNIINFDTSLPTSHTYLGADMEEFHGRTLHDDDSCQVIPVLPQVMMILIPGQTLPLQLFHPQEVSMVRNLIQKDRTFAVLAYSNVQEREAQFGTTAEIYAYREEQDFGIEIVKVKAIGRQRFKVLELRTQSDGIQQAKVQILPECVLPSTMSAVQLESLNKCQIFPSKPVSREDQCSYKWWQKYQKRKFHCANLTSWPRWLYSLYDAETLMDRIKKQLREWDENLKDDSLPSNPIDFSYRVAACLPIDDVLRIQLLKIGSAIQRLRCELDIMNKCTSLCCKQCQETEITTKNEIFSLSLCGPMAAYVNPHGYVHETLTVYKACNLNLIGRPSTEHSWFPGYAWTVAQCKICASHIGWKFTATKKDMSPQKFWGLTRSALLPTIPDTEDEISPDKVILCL
T1 sequence (Q16531 whole entry partner): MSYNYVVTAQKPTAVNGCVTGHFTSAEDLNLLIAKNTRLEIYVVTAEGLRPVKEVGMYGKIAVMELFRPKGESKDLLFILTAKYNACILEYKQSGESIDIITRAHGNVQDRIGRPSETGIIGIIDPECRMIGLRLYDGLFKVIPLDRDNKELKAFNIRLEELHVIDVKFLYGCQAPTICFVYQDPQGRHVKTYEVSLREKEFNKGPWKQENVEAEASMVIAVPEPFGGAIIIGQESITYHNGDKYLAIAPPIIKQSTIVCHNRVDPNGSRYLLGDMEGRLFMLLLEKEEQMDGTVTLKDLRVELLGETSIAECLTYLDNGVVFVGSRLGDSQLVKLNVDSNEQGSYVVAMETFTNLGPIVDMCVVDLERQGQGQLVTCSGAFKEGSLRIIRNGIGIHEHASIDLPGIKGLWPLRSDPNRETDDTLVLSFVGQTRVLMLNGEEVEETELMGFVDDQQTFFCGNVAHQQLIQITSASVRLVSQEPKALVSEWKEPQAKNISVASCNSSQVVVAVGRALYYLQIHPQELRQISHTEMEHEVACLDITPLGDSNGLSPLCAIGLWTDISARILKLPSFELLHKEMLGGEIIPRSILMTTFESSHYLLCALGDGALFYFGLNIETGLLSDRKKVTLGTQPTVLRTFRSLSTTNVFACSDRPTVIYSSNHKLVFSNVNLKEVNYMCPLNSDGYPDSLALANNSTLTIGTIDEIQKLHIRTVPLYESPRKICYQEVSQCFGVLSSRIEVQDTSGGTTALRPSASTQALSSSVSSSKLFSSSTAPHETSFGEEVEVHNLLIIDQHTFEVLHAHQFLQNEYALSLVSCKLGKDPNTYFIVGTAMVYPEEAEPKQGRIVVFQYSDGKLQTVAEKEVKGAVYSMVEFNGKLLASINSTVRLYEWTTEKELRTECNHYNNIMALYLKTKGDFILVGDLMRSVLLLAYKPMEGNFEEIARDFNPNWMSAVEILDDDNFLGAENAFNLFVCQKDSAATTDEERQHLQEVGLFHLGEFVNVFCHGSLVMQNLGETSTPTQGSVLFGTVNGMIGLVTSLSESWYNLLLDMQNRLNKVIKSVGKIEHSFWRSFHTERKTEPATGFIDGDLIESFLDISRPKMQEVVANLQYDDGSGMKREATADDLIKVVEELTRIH
How it was run: (§1)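 Degradation in primary human PBMCs after 24 h compound exposure at 50 and 500 nM. Western blot band intensities, normalised to an internal control protein, expressed as % protein remaining relative to DMSO.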

IKZF1 = biological target: T2, IKZF1 (Homo sapiens, UniProt Q13422+Q96SW2); assay: Western blot degradation of IKZF1 in hPBMCs (24 h)
T2 construct: The supernatant was aspirated as the extracted total cell protein; endogenous in cells; host or cells: human peripheral blood mononuclear cells (hPBMCs)
T2 sequence (Q13422 whole entry): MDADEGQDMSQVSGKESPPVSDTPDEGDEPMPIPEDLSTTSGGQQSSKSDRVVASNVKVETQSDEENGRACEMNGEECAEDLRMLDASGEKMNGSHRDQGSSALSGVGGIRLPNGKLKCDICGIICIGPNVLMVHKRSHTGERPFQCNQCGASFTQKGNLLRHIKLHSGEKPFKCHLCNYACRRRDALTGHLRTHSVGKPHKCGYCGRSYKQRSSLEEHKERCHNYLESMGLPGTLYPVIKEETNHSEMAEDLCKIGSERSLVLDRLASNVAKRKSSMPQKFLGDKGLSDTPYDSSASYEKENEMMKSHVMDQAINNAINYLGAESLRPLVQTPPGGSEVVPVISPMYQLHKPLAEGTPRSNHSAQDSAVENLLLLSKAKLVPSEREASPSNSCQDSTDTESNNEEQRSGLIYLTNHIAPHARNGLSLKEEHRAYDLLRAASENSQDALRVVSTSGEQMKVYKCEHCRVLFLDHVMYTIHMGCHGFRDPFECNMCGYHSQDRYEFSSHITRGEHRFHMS
T2 sequence (Q96SW2 whole entry): as the sequence (Q96SW2 whole entry) above
T2 sequence (Q16531 whole entry partner): as the sequence (Q16531 whole entry partner) above
How it was run: as §1

IKZF2 = biological target: T3, IKZF2 (Homo sapiens, UniProt Q96SW2+Q9UKS7); assay: Western blot degradation of IKZF2 in hPBMCs (24 h)
T3 construct: The supernatant was aspirated as the extracted total cell protein; endogenous in cells; host or cells: human peripheral blood mononuclear cells (hPBMCs)
How it was run: as §1

IKZF3 = biological target: T4, IKZF3 (Homo sapiens, UniProt Q96SW2+Q9UKT9); assay: Western blot degradation of IKZF3 in hPBMCs (24 h)
T4 construct: The supernatant was aspirated as the extracted total cell protein; endogenous in cells; host or cells: human peripheral blood mononuclear cells (hPBMCs)
T4 sequence (Q9UKT9 whole entry): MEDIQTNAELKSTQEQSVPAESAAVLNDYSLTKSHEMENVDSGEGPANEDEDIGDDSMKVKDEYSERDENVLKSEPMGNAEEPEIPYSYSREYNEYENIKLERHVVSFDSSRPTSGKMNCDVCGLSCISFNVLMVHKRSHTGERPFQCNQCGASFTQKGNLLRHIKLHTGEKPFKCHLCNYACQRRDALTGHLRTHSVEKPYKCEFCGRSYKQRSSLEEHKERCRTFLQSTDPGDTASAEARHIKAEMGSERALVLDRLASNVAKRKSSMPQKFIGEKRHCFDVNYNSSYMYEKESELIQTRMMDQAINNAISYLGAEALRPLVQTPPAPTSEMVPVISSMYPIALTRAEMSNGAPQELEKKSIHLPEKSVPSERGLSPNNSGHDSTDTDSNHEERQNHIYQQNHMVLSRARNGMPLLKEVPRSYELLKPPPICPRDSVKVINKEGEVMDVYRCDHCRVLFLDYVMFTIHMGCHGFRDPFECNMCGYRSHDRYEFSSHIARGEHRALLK
T4 sequence (Q96SW2 whole entry): as the sequence (Q96SW2 whole entry) above
T4 sequence (Q16531 whole entry partner): as the sequence (Q16531 whole entry partner) above
How it was run: as §1

CK1α = biological target: T5, CK1α (Homo sapiens, UniProt P48729+Q96SW2); assay: Western blot degradation of CK1α in hPBMCs (24 h)
T5 construct: The supernatant was aspirated as the extracted total cell protein; endogenous in cells; host or cells: human peripheral blood mononuclear cells (hPBMCs)
T5 sequence (P48729 whole entry): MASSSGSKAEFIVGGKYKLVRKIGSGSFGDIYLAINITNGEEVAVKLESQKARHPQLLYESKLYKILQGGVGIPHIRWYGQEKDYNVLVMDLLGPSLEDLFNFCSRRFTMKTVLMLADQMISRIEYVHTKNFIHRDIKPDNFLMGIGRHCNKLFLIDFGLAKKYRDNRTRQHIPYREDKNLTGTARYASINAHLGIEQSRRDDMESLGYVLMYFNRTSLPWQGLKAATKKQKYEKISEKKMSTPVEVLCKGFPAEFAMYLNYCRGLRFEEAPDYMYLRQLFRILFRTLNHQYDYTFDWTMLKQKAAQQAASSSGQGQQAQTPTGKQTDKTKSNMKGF
T5 sequence (Q96SW2 whole entry): as the sequence (Q96SW2 whole entry) above
T5 sequence (Q16531 whole entry partner): as the sequence (Q16531 whole entry partner) above
How it was run: as §1

GSPT1 = biological target: T6, GSPT1 (Homo sapiens, UniProt P15170+Q96SW2); assay: Western blot degradation of GSPT1 in hPBMCs (24 h)
T6 construct: The supernatant was aspirated as the extracted total cell protein; endogenous in cells; host or cells: human peripheral blood mononuclear cells (hPBMCs)
T6 sequence (P15170 whole entry): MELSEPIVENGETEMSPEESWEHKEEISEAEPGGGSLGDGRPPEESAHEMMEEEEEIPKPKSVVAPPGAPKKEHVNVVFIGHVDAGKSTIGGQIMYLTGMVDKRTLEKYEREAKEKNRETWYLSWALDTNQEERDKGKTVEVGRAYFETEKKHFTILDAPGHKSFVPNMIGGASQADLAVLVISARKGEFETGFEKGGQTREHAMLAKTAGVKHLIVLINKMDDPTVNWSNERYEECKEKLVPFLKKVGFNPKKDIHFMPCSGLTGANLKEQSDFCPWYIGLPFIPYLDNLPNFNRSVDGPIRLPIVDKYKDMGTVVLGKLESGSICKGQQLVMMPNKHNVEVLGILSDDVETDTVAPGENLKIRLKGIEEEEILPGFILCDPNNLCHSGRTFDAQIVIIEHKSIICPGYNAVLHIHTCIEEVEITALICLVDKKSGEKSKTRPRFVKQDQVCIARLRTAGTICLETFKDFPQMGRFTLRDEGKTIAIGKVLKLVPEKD
T6 sequence (Q96SW2 whole entry): as the sequence (Q96SW2 whole entry) above
T6 sequence (Q16531 whole entry partner): as the sequence (Q16531 whole entry partner) above
How it was run: as §1

Row | SMILES | WEE1 substrate protein remaining % (WEE1) | IKZF1 substrate protein remaining % (IKZF1) | IKZF2 substrate protein remaining % (IKZF2) | IKZF3 substrate protein remaining % (IKZF3) | CK1α substrate protein remaining % (CK1α) | GSPT1 substrate protein remaining % (GSPT1)
1 | O=C1CCN(N2Cc3cc(CN4CCN(c5cc(Cl)ccn5)CC4)ccc3C2=O)C(=O)N1 [GT-05128, 1-(5-((4-(4-chloropyridin-2-yl)piperazin-1-yl)methyl)-1-oxoisoindolin-2-yl)dihydropyrimidine-2,4(1H,3H)-dione] | A (0% ≤ substrate protein remaining % ≤80%) | A (0% ≤ substrate protein remaining % ≤80%) | A (0% ≤ substrate protein remaining % ≤80%) | A (0% ≤ substrate protein remaining % ≤80%) | A (0% ≤ substrate protein remaining % ≤80%) | A (0% ≤ substrate protein remaining % ≤80%)
2 | O=C1CCN(N2Cc3cc(CN4CCC(c5ccccc5F)CC4)ccc3C2=O)C(=O)N1 [GT-06889, 1-(5-((4-(2-fluorophenyl)piperidin-1-yl)methyl)-1-oxoisoindolin-2-yl)dihydropyrimidine-2,4(1H,3H)-dione] | A (0% ≤ substrate protein remaining % ≤80%) | B (80%< substrate protein remaining % ≤100%) | A (0% ≤ substrate protein remaining % ≤80%) | B (80%< substrate protein remaining % ≤100%) | B (80%< substrate protein remaining % ≤100%) | A (0% ≤ substrate protein remaining % ≤80%)
3 | O=C1CCN(N2Cc3cc(CN4CCN(c5cc(F)cc(F)c5)CC4)ccc3C2=O)C(=O)N1 [GT-06782, 1-(5-((4-(3,5-difluorophenyl)piperazin-1-yl)methyl)-1-oxoisoindolin-2-yl)dihydropyrimidine-2,4(1H,3H)-dione] | B (80%< substrate protein remaining % ≤100%) | B (80%< substrate protein remaining % ≤100%) | B (80%< substrate protein remaining % ≤100%) | B (80%< substrate protein remaining % ≤100%) | A (0% ≤ substrate protein remaining % ≤80%) | A (0% ≤ substrate protein remaining % ≤80%)
4 | O=C1CCN(N2C(=O)c3ccc(CN4CCN(c5ncc6ccsc6n5)CC4)cc3C2=O)C(=O)N1 [GT-08105, 2-(2,4-dioxotetrahydropyrimidin-1(2H)-yl)-5-((4-(thieno[2,3-d]pyrimidin-2-yl)piperazin-1-yl)methyl)isoindoline-1,3-dione] | B (80%< substrate protein remaining % ≤100%) | B (80%< substrate protein remaining % ≤100%) | A (0% ≤ substrate protein remaining % ≤80%) | A (0% ≤ substrate protein remaining % ≤80%) | B (80%< substrate protein remaining % ≤100%) | A (0% ≤ substrate protein remaining % ≤80%)
5 | O=C1CCN(N2C(=O)c3ccc(CN4CCN(c5nccc(Cl)c5Br)CC4)cc3C2=O)C(=O)N1 [GT-07291, 5-((4-(3-bromo-4-chloropyridin-2-yl)piperazin-1-yl)methyl)-2-(2,4-dioxotetrahydropyrimidin-1(2H)-yl)isoindoline-1,3-dione] | A (0% ≤ substrate protein remaining % ≤80%) | B (80%< substrate protein remaining % ≤100%) | B (80%< substrate protein remaining % ≤100%) | B (80%< substrate protein remaining % ≤100%) | B (80%< substrate protein remaining % ≤100%) | A (0% ≤ substrate protein remaining % ≤80%)
6 | O=C1CCN(N2Cc3cc(CN4CCN(c5ncc6ccsc6n5)CC4)ccc3C2=O)C(=O)N1 [GT-08081, 1-(1-oxo-5-((4-(thieno[2,3-d]pyrimidin-2-yl)piperazin-1-yl)methyl)isoindolin-2-yl)dihydropyrimidine-2,4(1H,3H)-dione] | A (0% ≤ substrate protein remaining % ≤80%) | B (80%< substrate protein remaining % ≤100%) | B (80%< substrate protein remaining % ≤100%) | B (80%< substrate protein remaining % ≤100%) | A (0% ≤ substrate protein remaining % ≤80%) | A (0% ≤ substrate protein remaining % ≤80%)
7 | O=C1CCN(N2Cc3cc(CN4CCN(c5ncnc6ccsc56)CC4)ccc3C2=O)C(=O)N1 [GT-08443, 1-(1-oxo-5-((4-(thieno[3,2-d]pyrimidin-4-yl)piperazin-1-yl)methyl)isoindolin-2-yl)dihydropyrimidine-2,4(1H,3H)-dione] | A (0% ≤ substrate protein remaining % ≤80%) | B (80%< substrate protein remaining % ≤100%) | B (80%< substrate protein remaining % ≤100%) | B (80%< substrate protein remaining % ≤100%) | B (80%< substrate protein remaining % ≤100%) | B (80%< substrate protein remaining % ≤100%)
8 | O=C1CCN(N2Cc3cc(CN4CCN(c5ccc(F)cn5)CC4)ccc3C2=O)C(=O)N1 [GT-05131, 1-(5-((4-(5-fluoropyridin-2-yl)piperazin-1-yl)methyl)-1-oxoisoindolin-2-yl)dihydropyrimidine-2,4(1H,3H)-dione] | A (0% ≤ substrate protein remaining % ≤80%) | A (0% ≤ substrate protein remaining % ≤80%) | A (0% ≤ substrate protein remaining % ≤80%) | A (0% ≤ substrate protein remaining % ≤80%) | A (0% ≤ substrate protein remaining % ≤80%) | A (0% ≤ substrate protein remaining % ≤80%)
9 | CC1(C)CC(c2ccc(Cl)cc2)=C(CN2CCN(Cc3ccc4c(c3)C(=O)N(N3CCC(=O)NC3=O)C4=O)CC2)CO1 [GT-07304, 5-((4-((4-(4-chlorophenyl)-6,6-dimethyl-5,6-dihydro-2H-pyran-3-yl)methyl)piperazin-1-yl)methyl)-2-(2,4-dioxotetrahydropyrimidin-1(2H)-yl)isoindoline-1,3-dione] | B (80%< substrate protein remaining % ≤100%) | B (80%< substrate protein remaining % ≤100%) | B (80%< substrate protein remaining % ≤100%) | B (80%< substrate protein remaining % ≤100%) | A (0% ≤ substrate protein remaining % ≤80%) | A (0% ≤ substrate protein remaining % ≤80%)
10 | Cn1cc(C2=CCN(Cc3ccc4c(c3)C(=O)N(N3CCC(=O)NC3=O)C4=O)CC2)c2ccc(F)cc21 [GT-05276, 2-(2,4-dioxotetrahydropyrimidin-1(2H)-yl)-5-((4-(6-fluoro-1-methyl-1H-indol-3-yl)-3,6-dihydropyridin-1(2H)-yl)methyl)isoindoline-1,3-dione] | B (80%< substrate protein remaining % ≤100%) | B (80%< substrate protein remaining % ≤100%) | B (80%< substrate protein remaining % ≤100%) | A (0% ≤ substrate protein remaining % ≤80%) | B (80%< substrate protein remaining % ≤100%) | A (0% ≤ substrate protein remaining % ≤80%)
11 | Cc1cscc1C1CCN(Cc2ccc3c(c2)C(=O)N(N2CCC(=O)NC2=O)C3=O)CC1 [GT-05314, 2-(2,4-dioxotetrahydropyrimidin-1(2H)-yl)-5-((4-(4-methylthiophen-3-yl)piperidin-1-yl)methyl)isoindoline-1,3-dione] | B (80%< substrate protein remaining % ≤100%) | B (80%< substrate protein remaining % ≤100%) | B (80%< substrate protein remaining % ≤100%) | B (80%< substrate protein remaining % ≤100%) | B (80%< substrate protein remaining % ≤100%) | A (0% ≤ substrate protein remaining % ≤80%)
12 | O=C1CCN(N2Cc3cc(CN4CCN(c5cccc(F)n5)CC4)ccc3C2=O)C(=O)N1 [GT-05130, 1-(5-((4-(6-fluoropyridin-2-yl)piperazin-1-yl)methyl)-1-oxoisoindolin-2-yl)dihydropyrimidine-2,4(1H,3H)-dione] | A (0% ≤ substrate protein remaining % ≤80%) | A (0% ≤ substrate protein remaining % ≤80%) | A (0% ≤ substrate protein remaining % ≤80%) | A (0% ≤ substrate protein remaining % ≤80%) | A (0% ≤ substrate protein remaining % ≤80%) | A (0% ≤ substrate protein remaining % ≤80%)
13 | O=C1CCN(N2C(=O)c3ccc(CN4CCN(c5cccc(Br)c5)CC4)cc3C2=O)C(=O)N1 [GT-06722, 5-((4-(3-bromophenyl)piperazin-1-yl)methyl)-2-(2,4-dioxotetrahydropyrimidin-1(2H)-yl)isoindoline-1,3-dione] | A (0% ≤ substrate protein remaining % ≤80%) | A (0% ≤ substrate protein remaining % ≤80%) | B (80%< substrate protein remaining % ≤100%) | A (0% ≤ substrate protein remaining % ≤80%) | A (0% ≤ substrate protein remaining % ≤80%) | B (80%< substrate protein remaining % ≤100%)
